Experiments:
Pyruvate kinase PKLR [1] = molecular target: T1, Pyruvate kinase PKLR (Homo sapiens, UniProt P30613); experiment: Activation of wild type PKR (unknown origin) incubated for 60 mins in presence of ADP, PEP and NADH by Spectraax microplate reader based assay
Pyruvate kinase PKLR [2] = molecular target: Pyruvate kinase PKLR (Homo sapiens, UniProt P30613, R532W); experiment: Activation of PKR R532W mutant (unknown origin) incubated for 60 mins in presence of ADP, PEP and NADH by Spectraax microplate reader based assay
Pyruvate kinase PKLR [3] = molecular target: T1, Pyruvate kinase PKLR; experiment: Activation of wild type PKR (unknown origin) by cell based assay

Chain of Pyruvate kinase PKLR (Homo sapiens, UniProt P30613, R532W) (P30613 whole entry R532W): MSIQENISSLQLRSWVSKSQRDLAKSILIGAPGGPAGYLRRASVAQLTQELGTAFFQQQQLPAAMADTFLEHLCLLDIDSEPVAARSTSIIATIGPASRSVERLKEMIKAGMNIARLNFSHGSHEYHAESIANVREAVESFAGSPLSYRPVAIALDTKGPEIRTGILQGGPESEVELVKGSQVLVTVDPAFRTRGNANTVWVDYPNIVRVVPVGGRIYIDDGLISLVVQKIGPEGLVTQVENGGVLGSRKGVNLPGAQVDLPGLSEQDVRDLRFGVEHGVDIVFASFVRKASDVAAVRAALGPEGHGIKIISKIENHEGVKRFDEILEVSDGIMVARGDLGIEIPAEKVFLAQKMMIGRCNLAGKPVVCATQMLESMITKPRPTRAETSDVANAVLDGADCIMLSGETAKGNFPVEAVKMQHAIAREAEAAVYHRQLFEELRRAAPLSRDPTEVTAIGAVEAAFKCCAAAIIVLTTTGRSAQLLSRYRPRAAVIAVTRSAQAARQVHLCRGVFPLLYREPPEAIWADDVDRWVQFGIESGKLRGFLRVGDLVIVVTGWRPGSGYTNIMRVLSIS
T1 sequence (P30613 whole entry): as the sequence (P30613 whole entry R532W) above, with W532R counted along it

| Compound | AC50 (Pyruvate kinase PKLR [1]) [nM] | AC50 (Pyruvate kinase PKLR [2]) [nM] | AC50 (Pyruvate kinase PKLR [3]) [nM] |
| --- | --- | --- | --- |
| O=C(c1ccc(NS(=O)(=O)c2cccc3scnc23)cc1)N1CCC(O)(CC2CC2(F)F)CC1 (stereo not drawn) | < 100 | < 100 |  |
| Nc1c(O)cccc1S(=O)(=O)Nc1ccc(C(=O)N2CCC(O)(c3ccccc3Cl)CC2)cc1 | < 100 |  | < 100 |
| O=C(c1ccc(NS(=O)(=O)c2cccc3cccnc23)c2ccccc12)N1CCC(O)(c2ccccc2Cl)CC1 | < 100 | < 100 |  |
| N#Cc1cccc(S(=O)(=O)Nc2ccc(C(=O)N3CCC(O)(Cc4ccccc4)CC3)cc2)c1 | > 10000 |  |  |
| O=C(c1ccc(NS(=O)(=O)c2cccc3scnc23)cc1)N1CCC(O)(c2ccccc2C(F)F)CC1 | < 100 | < 100 |  |
| CC(C)CC1(O)CCN(C(=O)c2ccc(NS(=O)(=O)c3cccc(O)c3N)cc2)CC1 | < 100 |  | < 100 |
| O=C(c1ccc(NS(=O)(=O)c2cccc3scnc23)cc1)N1CCC(O)(CCC(F)=C(F)F)CC1 | < 100 | < 100 |  |
| O=C(c1ccc(NS(=O)(=O)c2cccc3cccnc23)cc1)N1CCC(O)(c2cccnc2F)CC1 | < 100 |  |  |
| Cc1nc(C(=O)N2CCC(O)(c3ccccc3Cl)CC2)ccc1NS(=O)(=O)c1cccc2cccnc12 | < 100 | < 100 |  |
| O=C(c1ccc(NS(=O)(=O)c2ccc(F)c3cccnc23)cc1)N1CCC(O)(Cc2ccccc2C(F)(F)F)CC1 | < 100 | < 100 |  |
| CC(C)(O)CCCC1(O)CCN(C(=O)c2ccc(NS(=O)(=O)c3cccc4nccnc34)cc2)CC1 | > 10000 | > 10000 |  |
| Cc1cc(CC2(O)CCN(C(=O)c3ccc(NS(=O)(=O)c4cccc5nccnc45)cc3)CC2)sn1 | < 100 | < 100 |  |
| Cc1n[nH]c(C)c1CC1(O)CCN(C(=O)c2ccc(NS(=O)(=O)c3cccc4scnc34)cc2)CC1 | < 100 | < 100 |  |
| O=C(c1ccc(NS(=O)(=O)c2cccc3cccnc23)cc1)N1CCC(O)(c2ncccc2F)CC1 | < 100 | < 100 |  |
| O=C(c1ccc(NS(=O)(=O)c2cccc3cccnc23)cc1)N1CCC(O)(Cc2cccc(C(F)(F)F)c2)CC1 | < 100 | < 100 |  |
| Cn1cc(CC2(O)CCN(C(=O)c3ccc(NS(=O)(=O)c4cccc5scnc45)cc3)CC2)cn1 |  | < 100 |  |
| O=C(c1ccc(NS(=O)(=O)c2cccc3ccccc23)cc1)N1CCC(O)(c2ccccc2Cl)CC1 | < 100 | < 100 |  |
| O=C(c1ncc(NS(=O)(=O)c2cccc3cccnc23)cn1)N1CCC(O)(c2ccccc2)CC1 | > 10000 |  |  |
| C=C(C)CC1(O)CCN(C(=O)c2ccc(NS(=O)(=O)c3cccc4scnc34)cc2)CC1 | < 100 | < 100 |  |
| O=C(c1ccc(NS(=O)(=O)c2cccc3nccnc23)cc1)N1CCC(O)(c2sncc2Cl)CC1 |  |  | < 100 |
| CC(C)CC1(CO)CCN(C(=O)c2ccc(NS(=O)(=O)c3cccc4nccnc34)cc2)CC1 | < 100 | < 100 |  |

| Compound | AC50 (Pyruvate kinase PKLR [1]) [nM] | AC50 (Pyruvate kinase PKLR [2]) [nM] | AC50 (Pyruvate kinase PKLR [3]) [nM] |
| --- | --- | --- | --- |
| CC(C)(F)CC1(O)CCN(C(=O)c2ccc(NS(=O)(=O)c3cccc4scnc34)cc2)CC1 |  | < 100 | < 100 |
| Cc1nc(C2(O)CCN(C(=O)c3ccc(NS(=O)(=O)c4cccc5cccnc45)cc3)CC2)ccc1F | < 100 | < 100 |  |
| O=C(c1ccc(NS(=O)(=O)c2cccc3scnc23)cc1)N1CCC(O)(Cc2cn[nH]c2)CC1 | < 100 | < 100 |  |
| Cc1n[nH]c(C)c1CC1(O)CCN(C(=O)c2ccc(NS(=O)(=O)c3cccc4nccnc34)cc2)CC1 | < 100 | < 100 |  |
| CC(C)CC1(OC(=O)OCOP(=O)(O)O)CCN(C(=O)c2ccc(NS(=O)(=O)c3cccc4nccnc34)cc2)CC1 |  |  | < 100 |
| O=C(c1ccc(NS(=O)(=O)c2ccc(C(F)(F)F)cc2)cc1)N1CCC(O)(Cc2ccccc2)CC1 | > 10000 | > 10000 |  |
| COc1cc(NS(=O)(=O)c2cccc3cccnc23)ccc1C(=O)N1CCC(O)(c2ccccc2Cl)CC1 | < 100 | < 100 |  |
| CC(F)(F)CCC1(O)CCN(C(=O)c2ccc(NS(=O)(=O)c3cc(F)cc4sc(N)nc34)cc2F)CC1 | < 100 |  |  |
| COc1ncccc1C1(O)CCN(C(=O)c2ccc(NS(=O)(=O)c3cccc4cccnc34)cc2)CC1 | < 100 | < 100 |  |
| CC(F)(F)CCC1(O)CCN(C(=O)c2ccc(NS(=O)(=O)c3cccc4nccnc34)cc2OC(F)F)CC1 |  | < 100 |  |
| Cn1cc(C2(O)CCN(C(=O)c3ccc(NS(=O)(=O)c4cccc5scnc45)cc3)CC2)cn1 |  | < 100 | < 100 |
| Cc1noc(C)c1CC1(O)CCN(C(=O)c2ccc(NS(=O)(=O)c3cccc4scnc34)cc2)CC1 | < 100 | < 100 |  |
| COCCC1(O)CCN(C(=O)c2ccc(NS(=O)(=O)c3cccc4cccnc34)cc2)CC1 | < 100 |  |  |
| O=C(c1ccc(NS(=O)(=O)c2ccc(F)c3cccnc23)cc1)N1CCC(O)(CC2CCC2)CC1 | < 100 | < 100 |  |
| Cc1cc(C2(O)CCN(C(=O)c3ccc(NS(=O)(=O)c4cccc5nccnc45)cc3)CC2)sn1 | < 100 | < 100 |  |
| Cc1ccc(C2(O)CCN(C(=O)c3ccc(NS(=O)(=O)c4cccc5cccnc45)cc3)CC2)c(Cl)c1 | < 100 | < 100 |  |
| CS(=O)(=O)c1cccc(C2(O)CCN(C(=O)c3ccc(NS(=O)(=O)c4cccc5cccnc45)cc3)CC2)c1 | < 100 |  | < 100 |
| O=C(c1ccc(NS(=O)(=O)c2cccc3cnccc23)cc1)N1CCC(O)(c2ccccc2)CC1 | > 10000 | > 10000 |  |
| O=C(c1ccc(NS(=O)(=O)c2cccc3nccnc23)cc1)N1CCC(O)(CC2CC2)CC1 | < 100 | < 100 |  |
| Cn1nccc1CC1(O)CCN(C(=O)c2ccc(NS(=O)(=O)c3cccc4scnc34)cc2)CC1 |  | < 100 |  |
| O=C(c1ccc(NS(=O)(=O)c2cccc3nccnc23)cc1)N1CCC(O)(CCC(F)(F)F)CC1 | < 100 | < 100 |  |

Other lines, results leading:

| AC50 (Pyruvate kinase PKLR [1]) [nM] | AC50 (Pyruvate kinase PKLR [2]) [nM] | AC50 (Pyruvate kinase PKLR [3]) [nM] | Compound |
| --- | --- | --- | --- |
| < 100 | < 100 |  | O=C(c1ccc(NS(=O)(=O)c2cc(F)cc3cccnc23)cc1)N1CCC(O)(c2ccccc2)CC1 |
| < 100 | < 100 | < 100 | O=C(c1ccc(NS(=O)(=O)c2cccc3scnc23)cc1)N1CCC(O)(CCC=C(F)F)CC1 |
| > 10000 | > 10000 |  | CC(C)CC1(OP(=O)(O)O)CCN(C(=O)c2ccc(NS(=O)(=O)c3cccc4scnc34)cc2)CC1 |
|  | > 10000 |  | O=C(c1ccc(NS(=O)(=O)c2cccnc2)cc1)N1CCC(O)(Cc2ccccc2)CC1 |
| < 100 | < 100 |  | O=C(c1ccc(NS(=O)(=O)c2cccc3ccc(F)nc23)cc1)N1CCC(O)(c2ccccc2Cl)CC1 |
| < 100 | < 100 |  | CC(F)(F)CCC1(O)CCN(C(=O)c2ccc(NS(=O)(=O)c3cccc4scnc34)cc2OC(F)F)CC1 |
|  |  | < 100 | O=C(c1ccc(NS(=O)(=O)c2cccc3nccnc23)cc1)N1CCC(O)(c2ccccc2)CC1 |
| < 100 |  |  | O=C(c1ccc(NS(=O)(=O)c2cccc3cccnc23)cc1)N1CCC(O)(/C=C/C(F)F)CC1 |
|  |  | < 100 | CC(C)CC1(OC(=O)OCOP(=O)(O)O)CCN(C(=O)c2ccc(NS(=O)(=O)c3cccc4scnc34)cc2)CC1 |
| < 100 | < 100 |  | Nc1nc2c(S(=O)(=O)Nc3ccc(C(=O)N4CCC(O)(CCC(F)(F)F)CC4)cc3)cccc2s1 |
| < 100 | < 100 |  | CC(C)CC1(CO)CCN(C(=O)c2ccc(NS(=O)(=O)c3cccc4scnc34)cc2)CC1 |
| < 100 | < 100 |  | Cc1cc(C2(O)CCN(C(=O)c3ccc(NS(=O)(=O)c4cccc5scnc45)cc3)CC2)sn1 |
|  | < 100 |  | CCOCC1(O)CCN(C(=O)c2ccc(NS(=O)(=O)c3cccc4cccnc34)cc2)CC1 |
| < 100 | < 100 |  | COc1ccccc1C1(O)CCN(C(=O)c2ccc(NS(=O)(=O)c3cccc4cccnc34)cc2)CC1 |
| < 100 |  | < 100 | CC(F)(F)CCC1(O)CCN(C(=O)c2ccc(NS(=O)(=O)c3cccc4nccnc34)cc2)CC1 |
| < 100 | < 100 |  | O=C(c1ccc(NS(=O)(=O)c2cc(F)cc3cccnc23)cc1)N1CCC(O)(c2ccccc2Cl)CC1 |
| < 100 | < 100 |  | O=C(c1ccc(NS(=O)(=O)c2cccc3nccnc23)cc1)N1CCC(O)(Cc2cn[nH]c2)CC1 |
| < 100 | < 100 |  | O=C(c1ccc(NS(=O)(=O)c2cccc3cccnc23)cc1)N1CCC(O)(Cc2ccccn2)CC1 |
| < 100 | < 100 |  | O=C(c1ccc(NS(=O)(=O)c2cccc3ccoc23)cc1)N1CCC(O)(c2ccccc2Cl)CC1 |
| < 100 | < 100 |  | O=C(c1ccc(NS(=O)(=O)c2cccc3scnc23)cc1)N1CCC(O)(c2scnc2Cl)CC1 |
| < 100 | < 100 |  | CC(F)(F)CCC1(O)CCN(C(=O)c2ccc(NS(=O)(=O)c3cccc4scnc34)cc2)CC1 |
| < 100 | < 100 |  | Cc1cccc(CC2(O)CCN(C(=O)c3ccc(NS(=O)(=O)c4cccc5cccnc45)cc3)CC2)n1 |
| < 100 | < 100 |  | O=C(c1ccc(NS(=O)(=O)c2cc(F)cc3scnc23)cc1)N1CCC(O)(c2ccccc2Cl)CC1 |
|  | < 100 | < 100 | O=C(c1ccc(NS(=O)(=O)c2cccc3cccnc23)cc1)N1CCC(O)(c2ccccc2O)CC1 |
| > 10000 | > 10000 |  | CC(C)CC1(O)CCN(C(=O)c2ccc(NS(=O)(=O)c3cccc4snnc34)cc2)CC1 |
| < 100 |  |  | O=C(c1ccc(NS(=O)(=O)c2cccc3scnc23)cc1)N1CCC(O)(Cc2nc(Cl)cs2)CC1 |
| < 100 | < 100 |  | CC(C)CC1(O)CCN(C(=O)c2ccc(NS(=O)(=O)c3cc(F)cc4scnc34)cc2)CC1 |
| < 100 | < 100 |  | O=C(c1ccc(NS(=O)(=O)c2cccc3scnc23)cc1)N1CCC(O)(CC2CC2)CC1 |
| < 100 | < 100 |  | O=C(c1ccc(NS(=O)(=O)c2cccc3cccnc23)cc1)N1CCC(O)(Cc2cccnc2)CC1 |
| < 100 |  |  | O=C(c1ccc(NS(=O)(=O)c2cccc3ocnc23)cc1)N1CCC(O)(c2ccccc2Cl)CC1 |
